The values below are quoted from earlier work in patent publication US6326378A, “Use of thiadiazolo[4,3-a]pyridine derivatives” (Roche Diagnostics GmbH, priority 1998, dated 2001).

The conditions of the series: cited from earlier work.

Molecules are shown by their SMILES.

As for `Cn1c(=O)c2[nH]cnc2n(C)c1=O` [theophylline], the side effects entry (at slightly increased doses) was “nausea, giddiness, tachycardia and tremor”. In addition, the therapeutic breadth entry (employed for therapy) is given as “small therapeutic breadth”.
